# According to patent US10174002B2, “Pyridine derivatives as CFTR modulators” (NuBridge BioSciences, priority 2015, dated 2019):
# Molecular target: T1, ΔF508 mutant CFTR (Homo sapiens, UniProt P13569, DEL508-508)
# T1 construct: expressed in transfected cells; host or cells: Fischer rat thyroid (FRT) cells, co-expressing the halide-sensitive YFP-H148Q/I152L
# Experiment: Fluorescence Assay of ΔF508 mutant CFTR activity (halide-sensitive YFP quenching by iodide influx in FRT cells)
# Format: cell-based
# Set-up: key: fold of mean activity with forskolin alone (I− quenching rate)
# Conditions: test compounds 20 μM with forskolin 20 μM, 20 min; FRT cells expressing ΔF508-CFTR and YFP-H148Q/I152L, incubated at 27° C. 20-24 h; rate of fluorescence quenching by I−, normalized to mean activity with forskolin alone
# Text: The ΔF508 mutant CFTR activities of the CFTR modulators are detected using the Fluorescence Assay developed by Pedemonte (Pedemonte N., et al., Antihypertensive 1,4-dihydropyridines as correctors of the cystic fibrosis transmembrane conductance regulator channel gating defect caused by cystic fibrosis mutations, Mol. Pharmacol., 2005, 68, 1736-1746).
# Fischer rat thyroid (FRT) cells, stably transfected with ΔF508 were retransfected with the YFP-H148Q/I152L fluorescent protein. The cells were plated (100,000 cells/well) on black 96-well microplates with clear plastic bottom (Corning Life Sciences, Acton, Mass.).
# The 96-well microplates containing FRT cells expressing F508-CFTR and the halide-sensitive YFP were incubated at 27° C. for 20 to 24 h to allow rescue of the mutant protein to the plasma membrane. After incubation, cells were washed with PBS (containing 137 mM NaCl, 2.7 mM KCl, 8.1 mM Na2HPO4, 1.5 mM KH2PO4, 1 mM CaCl2, and 0.5 mM MgCl2) and stimulated for 20 min with forskolin (20 μM) and test compounds (20 μM) in a final volume of 60 μl. Microplates were then transferred to a microplate reader for CFTR activity determination. Each assay consisted of a continuous 14-s fluorescence reading (5 points per second) with 2 s before and 12 s after injection of 165 μl of an iodide-containing solution (PBS with Cl^− replaced by I^−). Final iodide concentration in the wells was 100 mM. […] To determine I^− influx rate, the final 11 s of the data for each well were fitted with an exponential function to extrapolate initial slope. CFTR activity was determined by measuring the rate of fluorescence quenching induced by extracellular addition of I^−. Data are normalized to the mean activity measured in the presence of forskolin alone.
# T1 sequence (P13569 with tags, fused parts or gaps DEL508-508): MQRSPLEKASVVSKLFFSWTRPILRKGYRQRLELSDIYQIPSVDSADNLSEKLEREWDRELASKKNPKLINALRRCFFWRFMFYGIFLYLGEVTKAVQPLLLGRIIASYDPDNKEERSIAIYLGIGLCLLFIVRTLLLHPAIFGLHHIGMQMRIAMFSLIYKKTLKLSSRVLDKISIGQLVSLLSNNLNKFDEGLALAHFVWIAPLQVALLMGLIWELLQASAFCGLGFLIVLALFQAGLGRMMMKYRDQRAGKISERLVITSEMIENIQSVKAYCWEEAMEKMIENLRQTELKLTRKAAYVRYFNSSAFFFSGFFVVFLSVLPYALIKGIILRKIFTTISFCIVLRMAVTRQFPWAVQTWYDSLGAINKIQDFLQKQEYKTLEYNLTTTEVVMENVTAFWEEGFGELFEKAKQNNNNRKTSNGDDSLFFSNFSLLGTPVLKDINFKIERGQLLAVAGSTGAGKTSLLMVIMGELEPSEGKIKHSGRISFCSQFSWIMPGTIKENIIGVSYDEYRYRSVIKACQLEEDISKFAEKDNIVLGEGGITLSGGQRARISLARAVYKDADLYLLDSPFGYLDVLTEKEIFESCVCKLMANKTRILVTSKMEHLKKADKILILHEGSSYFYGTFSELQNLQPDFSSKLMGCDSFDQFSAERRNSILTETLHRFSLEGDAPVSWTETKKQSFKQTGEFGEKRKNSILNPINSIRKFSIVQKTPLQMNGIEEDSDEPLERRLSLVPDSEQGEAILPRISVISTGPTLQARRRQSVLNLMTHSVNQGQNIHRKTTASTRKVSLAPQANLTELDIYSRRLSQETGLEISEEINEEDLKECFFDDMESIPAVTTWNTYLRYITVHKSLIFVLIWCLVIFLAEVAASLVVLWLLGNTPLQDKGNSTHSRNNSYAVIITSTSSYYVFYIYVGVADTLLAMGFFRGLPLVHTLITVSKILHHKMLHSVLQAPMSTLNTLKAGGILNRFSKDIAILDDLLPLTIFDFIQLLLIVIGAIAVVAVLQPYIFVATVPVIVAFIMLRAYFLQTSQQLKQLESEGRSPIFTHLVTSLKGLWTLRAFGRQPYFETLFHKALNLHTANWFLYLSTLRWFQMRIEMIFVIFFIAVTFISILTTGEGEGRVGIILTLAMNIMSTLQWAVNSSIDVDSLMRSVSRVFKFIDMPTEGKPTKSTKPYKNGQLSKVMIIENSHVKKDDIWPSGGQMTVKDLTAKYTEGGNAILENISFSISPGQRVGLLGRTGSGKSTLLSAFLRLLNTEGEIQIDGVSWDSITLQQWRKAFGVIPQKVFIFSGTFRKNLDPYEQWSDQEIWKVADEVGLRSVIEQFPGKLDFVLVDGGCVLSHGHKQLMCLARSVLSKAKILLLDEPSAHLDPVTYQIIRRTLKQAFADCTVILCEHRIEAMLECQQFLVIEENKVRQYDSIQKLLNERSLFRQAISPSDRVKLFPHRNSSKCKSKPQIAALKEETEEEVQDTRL
row,SMILES,CFTR Activity
1,"Cl.NCC(CO)COc1ccncc1NC(=O)c1nc(-c2c(F)cccc2F)c(F)cc1N (stereo not shown) [Example 57, 3-amino-N-(4-(3-amino-2-(hydroxymethyl)propoxy)pyridin-3-yl)-6-(2,6-difluorophenyl)-5-fluoropicolinamide hydrochloride]",2.1
2,"Cl.Nc1cc(F)c(-c2ccccc2)nc1C(=O)Nc1cnccc1OC1CCNC1 (stereo not shown) [Example 38, 3-amino-5-fluoro-6-phenyl-N-(4-(pyrrolidin-3-yloxy)pyridin-3-yl)picolinamide hydrochloride]",1.7
3,"Cl.O=C(Nc1cnccc1OC1CCCNCC1)c1nc(-c2c(F)cccc2F)ccc1F (stereo not shown) [Example 40, N-(4-(azepan-4-yloxy)pyridin-3-yl)-6-(2,6-difluorophenyl)-3-fluoropicolinamide hydrochloride]",1.8
4,"Cl.Nc1cc(F)c(-c2c(F)cccc2F)nc1C(=O)Nc1cnccc1OC1CCNCC1 [Example 25, 3-amino-6-(2,6-difluorophenyl)-5-fluoro-N-(4-(piperidin-4-yloxy)pyridin-3-yl)picolinamide hydrochloride]",3.2
5,"Cl.Nc1cc(C(F)(F)F)c(-c2ccccc2)nc1C(=O)Nc1cnccc1OC1CCNC1 (stereo not shown) [Example 53, 3-amino-6-phenyl-N-(4-(pyrrolidin-3-yloxy)pyridin-3-yl)-5-(trifluoromethyl)picolinamide hydrochloride]",2.5
6,"Cl.NCC(CO)COc1ccncc1NC(=O)c1ccc(F)c(-c2c(F)cccc2F)n1 (stereo not shown) [Example 56, N-(4-(3-amino-2-(hydroxymethyl)propoxy)pyridin-3-yl)-6-(2,6-difluorophenyl)-5-fluoropicolinamide hydrochloride]",2.4
7,"Cl.Nc1cc(F)c(-c2c(F)cccc2F)nc1C(=O)Nc1cnccc1OC1CCNC1 (stereo not shown) [Example 24, 3-amino-6-(2,6-difluorophenyl)-5-fluoro-N-(4-(pyrrolidin-3-yloxy)pyridin-3-yl)picolinamide hydrochloride]",2.1
8,"Cl.N[C@H]1CC[C@H](Oc2ccncc2NC(=O)c2ccc(C(F)(F)F)c(-c3c(F)cccc3F)n2)CC1 [Example 46, N-(4-(((1r,4r)-4-aminocyclohexyl)oxy)pyridin-3-yl)-6-(2,6-difluorophenyl)-5-(trifluoromethyl)picolinamide hydrochloride]",3.1
9,"CC(C)(O)CCCOc1ccncc1NC(=O)c1ccc(F)c(-c2c(F)cccc2F)n1 [Example 20, 6-(2,6-difluorophenyl)-5-fluoro-N-(4-((4-hydroxy-4-methylpentyl)oxy)pyridin-3-yl)picolinamide]",0.1
10,"Cl.Nc1cc(C(F)(F)F)c(-c2c(F)cccc2F)nc1C(=O)Nc1cnccc1OCC1CCNCC1 [Example 49, 3-amino-6-(2,6-difluorophenyl)-N-(4-(piperidin-4-ylmethoxy)pyridin-3-yl)-5-(trifluoromethyl)picolinamide hydrochloride]",4.3
11,"Cl.Nc1cc(F)c(-c2c(F)cccc2F)nc1C(=O)Nc1cnccc1OCC1CNC1 [Example 32, 3-amino-N-(4-(azetidin-3-ylmethoxy)pyridin-3-yl)-6-(2,6-difluorophenyl)-5-fluoropicolinamide hydrochloride]",1.2
12,"O=C(Nc1cnccc1OCCC(O)CO)c1ccc(F)c(-c2c(F)cccc2F)n1 (stereo not shown) [Example 21, 6-(2,6-difluorophenyl)-N-(4-(3,4-dihydroxybutoxy)pyridin-3-yl)-5-fluoropicolinamide]",0.1
13,"O=C(Nc1cnccc1OCCCCO)c1ccc(F)c(-c2c(F)cccc2F)n1 [Example 19, 6-(2,6-difluorophenyl)-5-fluoro-N-(4-(4-hydroxybutoxy)pyridin-3-yl)picolinamide]",0.3
14,"Cl.Nc1cc(F)c(-c2c(F)cccc2F)nc1C(=O)Nc1cnccc1OC1CCCC(N)C1 (stereo not shown) [Example 37, 3-amino-N-(4-((3-aminocyclohexyl)oxy)pyridin-3-yl)-6-(2,6-difluorophenyl)-5-fluoropicolinamide hydrochloride]",4.8
15,"Cl.NCC(CO)COc1ccncc1NC(=O)c1nc(-c2c(F)cccc2F)c(C(F)(F)F)cc1N (stereo not shown) [Example 59, 3-amino-N-(4-(3-amino-2-(hydroxymethyl)propoxy)pyridin-3-yl)-6-(2,6-difluorophenyl)-5-(trifluoromethyl)picolinamide hydrochloride]",3.1
16,"Cl.O=C(Nc1cnccc1OCC1CCNCC1)c1ccc(F)c(-c2c(F)cccc2F)n1 [Example 1, 6-(2,6-difluorophenyl)-5-fluoro-N-(4-(piperidin-4-ylmethoxy)pyridin-3-yl)picolinamide hydrochloride]",1.4
17,"Cl.NCC(CO)COc1ccncc1NC(=O)c1ccc(C(F)(F)F)c(-c2c(F)cccc2F)n1 (stereo not shown) [Example 58, N-(4-(3-amino-2-(hydroxymethyl)propoxy)pyridin-3-yl)-6-(2,6-difluorophenyl)-5-(trifluoromethyl)picolinamide hydrochloride]",2.6
18,"CN(C)CCCOc1ccncc1NC(=O)c1ccc(F)c(-c2c(F)cccc2F)n1.Cl [Example 14, 6-(2,6-difluorophenyl)-N-(4-(3-(dimethylamino)propoxy)pyridin-3-yl)-5-fluoropicolinamide hydrochloride]",0.2
19,"Cl.NCCCOc1ccncc1NC(=O)c1ccc(F)c(-c2c(F)cccc2F)n1 [Example 12, N-(4-(3-aminopropoxy)pyridin-3-yl)-6-(2,6-difluorophenyl)-5-fluoropicolinamide hydrochloride]",0.7
20,"Cl.Nc1cc(C(F)(F)F)c(-c2c(F)cccc2F)nc1C(=O)Nc1cnccc1OC1CCCC(N)C1 (stereo not shown) [Example 61, 3-amino-N-(4-((3-aminocyclohexyl)oxy)pyridin-3-yl)-6-(2,6-difluorophenyl)-5-(trifluoromethyl)picolinamide hydrochloride]",6.1
21,"CNCCCCOc1ccncc1NC(=O)c1ccc(F)c(-c2c(F)cccc2F)n1.Cl [Example 16, 6-(2,6-difluorophenyl)-5-fluoro-N-(4-(4-(methylamino)butoxy)pyridin-3-yl)picolinamide hydrochloride]",0.6
22,"Cl.Nc1cc(C(F)(F)F)c(-c2c(F)cccc2F)nc1C(=O)Nc1cnccc1OC1CCNCC1 [Example 51, 3-amino-6-(2,6-difluorophenyl)-N-(4-(piperidin-4-yloxy)pyridin-3-yl)-5-(trifluoromethyl)picolinamide hydrochloride]",4.8
23,"Cl.NC1CCCC(Oc2ccncc2NC(=O)c2ccc(F)c(-c3c(F)cccc3F)n2)C1 (stereo not shown) [Example 11, N-(4-((3-aminocyclohexyl)oxy)pyridin-3-yl)-6-(2,6-difluorophenyl)-5-fluoropicolinamide hydrochloride]",3.1
24,"Cl.O=C(Nc1cnccc1OC1CCNC1)c1ccc(F)c(-c2c(F)cccc2F)n1 (stereo not shown) [Example 4, 6-(2,6-difluorophenyl)-5-fluoro-N-(4-(pyrrolidin-3-yloxy)pyridin-3-yl)picolinamide hydrochloride]",0.9
25,"Cl.Nc1cc(F)c(-c2c(F)cccc2F)nc1C(=O)Nc1cnccc1OCC1CCNC1 (stereo not shown) [Example 28, 3-amino-6-(2,6-difluorophenyl)-5-fluoro-N-(4-(pyrrolidin-3-ylmethoxy)pyridin-3-yl)picolinamide hydrochloride]",2.2
26,"Cl.O=C(Nc1cnccc1OC1CCNCC1)c1ccc(C(F)(F)F)c(-c2c(F)cccc2F)n1 [Example 45, 6-(2,6-difluorophenyl)-N-(4-(piperidin-4-yloxy)pyridin-3-yl)-5-(trifluoromethyl)picolinamide hydrochloride]",2.7
27,"Cl.Nc1cc(C(F)(F)F)c(-c2c(F)cccc2F)nc1C(=O)Nc1cnccc1OCC1CNC1 [Example 50, 3-amino-N-(4-(azetidin-3-ylmethoxy)pyridin-3-yl)-6-(2,6-difluorophenyl)-5-(trifluoromethyl)picolinamide hydrochloride]",2.7
28,"Cl.NCCCCOc1ccncc1NC(=O)c1nc(-c2c(F)cccc2F)c(F)cc1N [Example 36, 3-amino-N-(4-(4-aminobutoxy)pyridin-3-yl)-6-(2,6-difluorophenyl)-5-fluoropicolinamide hydrochloride]",2.3
